# Measurements reported in ChEMBL document CHEMBL3751713, “Synthesis and Biological Activity of Mono- and Di-N-acylated Aminoglycosides” (ACS Med Chem Lett, 2015).
# Columns and labels:
# [1] = test system: Bacillus subtilis; assay: Antimicrobial activity against Gram-positive Bacillus subtilis 168 after 16 to 24 hrs by micro-dilution method; assay type: functional
# [2] = test system: Listeria monocytogenes; assay: Antimicrobial activity against Gram-positive Listeria monocytogenes ATCC 19115 after 16 to 24 hrs by micro-dilution method; assay type: functional
# [3] = test system: Mycolicibacterium smegmatis; assay: Antimicrobial activity against Mycobacterium smegmatis MC2-155 after 16 to 24 hrs by micro-dilution method; assay type: functional; conditions: str. MC2 155
# [4] = test system: Bacillus cereus; assay: Antimicrobial activity against Gram-positive Bacillus cereus ATCC 17788 after 16 to 24 hrs by micro-dilution method; assay type: functional
# [5] = test system: Staphylococcus aureus; assay: Antimicrobial activity against Gram-positive methicillin-resistant Staphylococcus aureus 1 after 16 to 24 hrs by micro-dilution method; assay type: functional
# [6] = test system: Haemophilus influenzae; assay: Antimicrobial activity against Gram-negative Haemophilus influenzae ATCC 51907 after 16 to 24 hrs by micro-dilution method; assay type: functional
# [7] = test system: Bacillus anthracis; assay: Antimicrobial activity against Gram-positive Bacillus anthracis str. Sterne after 16 to 24 hrs by micro-dilution method; assay type: functional
# [8] = test system: Pseudomonas aeruginosa; assay: Antimicrobial activity against Gram-negative Pseudomonas aeruginosa PAO1 after 16 to 24 hrs by micro-dilution method; assay type: functional
# [9] = test system: Staphylococcus aureus; assay: Antimicrobial activity against Gram-positive Staphylococcus aureus ATCC 29213 after 16 to 24 hrs by micro-dilution method; assay type: functional
# [10] = test system: Staphylococcus aureus; assay: Antimicrobial activity against Gram-positive methicillin-resistant Staphylococcus aureus 2 after 16 to 24 hrs by micro-dilution method; assay type: functional
# [11] = target: T1, Aminoglycoside 3'-phosphotransferase (Escherichia coli, UniProt P00551); assay: Drug metabolism assessed as Escherichia coli APH(3')-Ia-mediated compound modification at 100 uM; assay type: ADME
# T1 sequence (P00551 whole entry): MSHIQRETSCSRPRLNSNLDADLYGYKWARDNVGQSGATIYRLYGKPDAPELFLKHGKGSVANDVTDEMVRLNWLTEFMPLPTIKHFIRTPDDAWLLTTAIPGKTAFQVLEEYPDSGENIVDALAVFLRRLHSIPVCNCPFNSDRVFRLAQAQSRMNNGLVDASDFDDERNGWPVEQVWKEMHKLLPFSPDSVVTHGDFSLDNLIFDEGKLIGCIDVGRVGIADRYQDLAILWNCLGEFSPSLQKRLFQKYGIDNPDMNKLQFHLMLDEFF
# [12] = Drug metabolism assessed as Escherichia coli AAC(3)-IV mediated compound modification at 100 uM; assay type: ADME
# [13] = Drug metabolism assessed as Mycobacterium tuberculosis Eis mediated compound modification at 100 uM; assay type: ADME
# [14] = Drug metabolism assessed as Staphylococcus aureus Bifunctional AAC(6')-1e/APH(2'')-1a mediated compound modification at 100 uM; assay type: ADME
# [15] = test system: Bacillus anthracis; assay: Potency index, ratio MIC of kanamycin to MIC of compound for Bacillus anthracis str. Sterne; assay type: functional
# [16] = test system: Mycolicibacterium smegmatis; assay: Potency index, ratio MIC of tobramycin to MIC of compound for Mycobacterium smegmatis MC2-155; assay type: functional, str. MC2 155
# [17] = test system: Bacillus anthracis; assay: Potency index, ratio MIC of tobramycin to MIC of compound for Bacillus anthracis str. Sterne; assay type: functional
SMILES,MIC [1],MIC [2],MIC [3],MIC [4],MIC [5],MIC [6],MIC [7],MIC [8],MIC [9],MIC [10],Drug metabolism [11],Drug metabolism [12],Drug metabolism [13],Drug metabolism [14],Ratio [15],Ratio [16],Ratio [17]
NCC[C@H](O)C(=O)N[C@@H]1C[C@H](N)[C@@H](O[C@H]2O[C@H](CN)[C@@H](O)[C@H](O)[C@H]2O)[C@H](O)[C@H]1O[C@H]1O[C@H](CO)[C@@H](O)[C@H](N)[C@H]1O [AMIKACIN],37.5 µg/mL,9.4 µg/mL,≤ 0.25 µg/mL,9.4 µg/mL,0.5 µg/mL,37.5 µg/mL,16 µg/mL,2.3 µg/mL,1 µg/mL,32 µg/mL,,,,,,,
NCC(=O)NCC[C@H](O)C(=O)N[C@H]1C[C@@H](N)[C@H](O[C@H]2O[C@H](CNC(=O)CN)[C@@H](O)[C@H](O)[C@H]2O)[C@@H](O)[C@@H]1O[C@H]1O[C@H](CO)[C@@H](O)[C@H](N)[C@H]1O (stereo in doubt),> 150 µg/mL,> 150 µg/mL,64 µg/mL,> 150 µg/mL,> 128 µg/mL,> 150 µg/mL,> 128 µg/mL,> 150 µg/mL,> 128 µg/mL,> 128 µg/mL,metabolite_notdetected,metabolite_detected,metabolite_detected,metabolite_detected,,,
NCC[C@H](O)C(=O)NC[C@H]1O[C@H](O[C@H]2[C@H](O)[C@@H](O[C@H]3O[C@H](CO)[C@@H](O)[C@H](N)[C@H]3O)[C@H](N)C[C@@H]2N)[C@H](O)[C@@H](O)[C@@H]1O,> 150 µg/mL,> 150 µg/mL,2 µg/mL,> 150 µg/mL,32 µg/mL,> 150 µg/mL,4 µg/mL,150 µg/mL,32 µg/mL,> 128 µg/mL,,metabolite_detected,metabolite_detected,metabolite_detected,32,,
NCC[C@H](O)C(=O)NC[C@H]1O[C@H](O[C@H]2[C@H](O)[C@@H](O[C@H]3O[C@H](CO)[C@@H](O)[C@H](N)[C@H]3O)[C@H](N)C[C@@H]2N)[C@H](N)C[C@@H]1O,> 150 µg/mL,> 150 µg/mL,8 µg/mL,> 150 µg/mL,16 µg/mL,> 150 µg/mL,2 µg/mL,> 150 µg/mL,8 µg/mL,> 128 µg/mL,metabolite_notdetected,metabolite_detected,metabolite_detected,metabolite_detected,,>=16,32
CN[C@@H]1[C@@H](O)[C@@H](O[C@@H]2[C@@H](O)[C@H](O[C@H]3OC(CN)=CC[C@H]3N)[C@@H](N)C[C@H]2N)OC[C@]1(C)O [SISOMICIN],4.7 µg/mL,2.3 µg/mL,≤ 0.25 µg/mL,9.4 µg/mL,≤ 0.25 µg/mL,4.7 µg/mL,≤ 0.25 µg/mL,1.2 µg/mL,≤ 0.25 µg/mL,≤ 0.25 µg/mL,,,,,,,
NC[C@H]1O[C@H](O[C@H]2[C@H](O)[C@@H](O[C@H]3O[C@H](CO)[C@@H](O)[C@H](N)[C@H]3O)[C@H](N)C[C@@H]2N)[C@H](N)C[C@@H]1O [TOBRAMYCIN],9.4 µg/mL,2.3 µg/mL,≥ 128 µg/mL,9.4 µg/mL,≤ 0.25 µg/mL,4.7 µg/mL,> 128 µg/mL,0.6 µg/mL,0.5 µg/mL,> 128 µg/mL,,,,,,,
CCN[C@@H]1C[C@H](N)[C@@H](O[C@H]2OC(CN)=CC[C@H]2N)[C@H](O)[C@H]1O[C@H]1OC[C@](C)(O)[C@H](NC)[C@H]1O [NETILMICIN],4.7 µg/mL,2.3 µg/mL,≤ 0.25 µg/mL,4.7 µg/mL,≤ 0.25 µg/mL,2.3 µg/mL,≤ 0.25 µg/mL,2.3 µg/mL,≤ 0.25 µg/mL,≤ 0.25 µg/mL,,,,,,,
